{"source": "patent US11773081B2", "about": "“Pharmaceutical composition for preventing or treating wound, comprising indirubin derivative as active ingredient” (CK Regeon Inc., priority 2018, dated 2023)", "key": {"[1]": {"system": "mouse acute wound", "test": "Wound healing and collagen synthesis in mouse acute wound (Test Example 2)", "assay_type": "in vivo", "procedure": "The wound healing-promoting effect of the indirubin derivatives prepared in Examples 1 and 2, the indirubin derivative of Comparative Example 1 (10) and EGF, known as an existing wound healing agent, as a positive control group was investigated through animal experiments.\nThe hair on the back of 7-week-old C3H mouse that entered the resting period was removed and a 1.5×1.5 cm^2 wound was made on the hair-removed region. 20 μL of a vehicle (10% DMSO, 45% ethanol, 18% propylene glycol, 27% water) and the indirubin derivative of Comparative Example 1 (10) were applied to a control group and a comparison group, respectively, once daily for 12 days. For the positive control group, 100 μM EGF was applied once daily for 12 days. For a first test group, 20 μL of the indirubin derivative of Example 2 (A3051) was applied once daily for 12 days. For a second test group, 20 μL of the indirubin derivative of Example 1 (A3334) was applied once daily for 12 days.\nThe tissue of each experimental mouse was fixed by immersing in 4% paraformaldehyde, embedded in paraffin and then sliced into 4 μm thickness. The sliced tissue was deparaffinized, rehydrated and then stained with Masson's trichrome and Picrosirius red for evaluation of the degree of collagen synthesis. For Masson's trichrome staining, a slide was placed in Weigert's iron hematoxylin solution for 10 minutes and in Biebrich scarlet-acid fuchsin and aniline blue for 5 minutes each. For Picrosirius red staining, a slide was placed in Weigert's solution for 8 minutes and in Picrosirius red for 1 hour."}, "[2]": {"system": "diabetic wound", "test": "Wound healing effect in diabetic wound animal model (Test Example 8)", "assay_type": "in vivo, mouse", "procedure": "(§1) 3-week-old male C57BL/6N mice (Koatech, South Korea) were used. After accustoming the mice for a week to normal feed, high-fat diet (Product Data—D12492; 60% kcal, hereinafter referred to as HFD) was given for 4 weeks. Then, a diabetes-induced animal model was prepared by intraperitoneally injecting 40 mg/kg streptozocin (Sigma) once daily for a week. The mice were kept in cages maintained at constant temperature (22±2° C.) and relative humidity (40-60%) with light/dark cycles of 12/12 hours.\n6 mice of the normal control group and 6 mice per test group of the diabetes-induced animal model of Test Example 7 were prepared. The hair on the back was removed and a 1.5×1.5 cm^2 wound was made on the hair-removed region.\nFor the normal control group, only 20 μL of an emulsion solution (Kollipore®EL:Tween 80:PEG 400 at a mixing weight ratio of 80:6:14) was applied to the wound site once daily for 14 days. For the negative control group, only 20 μL of the emulsion solution (Kollipore®EL:Tween 80:PEG 400 at a mixing weight ratio of 80:6:14) was applied to the wound site once daily for 14 days. For the test group, 20 μL of A3334 (Example 1) was applied to the wound site once daily for 14 days. Then, the wound site of the animal model was photographed and the wound area was measured on days 0, 1, 3, 7, 10 and 14 (FIG. 10). On day 14, after euthanizing the mouse with carbon dioxide, the wound site tissue was harvested and the histological structure was observed.\nA3334 (Example 1) was prepared by preparing an emulsion solution by mixing Kollipore®EL:Tween 80:PEG 400 at a mixing weight ratio of 80:6:14 and then dissolving the A3334 indirubin derivative synthesized in Example 1 to a concentration of 0.5 mM.\nThe wound closure rate (%) was calculated according to Equation 1. Wound closure rate (%)=[initial wound area on day 0−wound area on measurement day]/[initial wound area on day 0]×100 [Equation 1] […]"}, "[3]": {"system": "diabetic wound", "test": "Effect of treating diabetic wound (Test Example 9)", "assay_type": "in vivo", "conditions": "diabetes-induced mouse", "procedure": "as §1\n6 mice of the normal control group and 6 mice per test group of the diabetes-induced animal model of Test Example 7 were prepared. The hair on the back was removed and a 0.8×0.8 cm^2 wound was made on the hair-removed region.\nFor the normal control group, only 20 μL of an emulsion solution (Kollipore®EL:Tween 80:PEG 400 at a mixing weight ratio of 80:6:14) was applied to the wound site once daily for 14 days. For the negative control group, only 20 μL of the emulsion solution (Kollipore®EL:Tween 80:PEG 400 at a mixing weight ratio of 80:6:14) was applied to the wound site once daily for 14 days. For the positive control group (VPA), 20 μL of a composition prepared by mixing 500 mM VPA in an emulsion solution was applied to the wound site once daily for 14 days.\nFor the first test group, 20 μL of A3334 (Example 1) was applied to the wound site once daily for 14 days. For the second test group, 20 μL of A3051 (Example 2) was applied to the wound site once daily for 14 days. Then, the wound site of each group was photographed and the wound area was measured (FIG. 14). On day 14, after euthanizing the mouse with carbon dioxide, the wound site tissue was harvested and the histological structure was observed.\nSpecifically, the wound site tissue obtained from the normal control group, the negative control group, the positive control group or the first or second test group was fixed by immersing in 4% paraformaldehyde, embedded in paraffin and then sliced into 4 μm thickness. The sliced tissue was deparaffinized, rehydrated and then stained with hematoxylin (purple) and eosin (pink) for observation of histological structure.\nSpecifically, the wound site tissue obtained from the normal control group, the negative control group, the positive control group or the first or second test group was fixed by immersing in 4% paraformaldehyde, embedded in paraffin and then sliced into 4 μm thickness. The sliced tissue was deparaffinized, rehydrated and then stained with Van Gieson's stain and Masson's trichrome for observation of histological structure. For the Van Gieson's staining, the sliced tissue was immersed in Weigert's solution for 10 minutes and in picrofuchsin solution for 2 minutes. For the Masson's trichrome staining, the sliced tissue was immersed in Weigert's iron hematoxylin solution for 10 minutes and in Biebrich scarlet-acid fuchsin and Aniline blue for 5 minutes each.\nSpecifically, the wound site tissue obtained from the normal control group, the negative control group, the positive control group or the first and second test groups was fixed by immersing in 4% paraformaldehyde and angiogenesis was observed."}, "[4]": {"conditions": "C3H mouse acute wound, once daily for 12 days, vs EGF"}}, "note": "“Also recorded” adds a separate entry of the source.", "data": [{"smiles": "COc1ccc2c(c1)/C(=C1/Nc3ccccc3/C1=N\\O)C(=O)N2", "note": "[Example 1, 5-methoxylindirubin-3′-oxime]", "values": [{"measurement": "quantity of collagen (Masson's trichrome, Picrosirius red, van Gieson's stain)", "setting": "[1]; C3H mouse acute wound tissue, vs control group, Comparative Example 1, positive control group", "value": "remarkably increases the quantity of collagen"}, {"measurement": "re-epithelialization of acute wound", "setting": "[1]; [4]", "value": "re-epithelialized comparably to or faster than the positive control group EGF"}, {"measurement": "scar-reducing effect, repair of the epidermal layer of skin", "setting": "[1]; [4]", "value": "repairing the epidermal layer of skin without remaining scars"}, {"measurement": "wound repair effect as compared to the positive control group EGF", "setting": "[1]; C3H mouse, 1.5×1.5 cm^2 wound, 20 μL once daily for 12 days, EGF 100 μM, listed as A3334", "value": "slightly superior wound repair effect; also recorded: slightly better wound repair effect"}, {"measurement": "healing of the wound site (wound closure rate)", "setting": "[2]; diabetes-induced C57BL/6N mouse, 1.5×1.5 cm^2 wound, 20 μL of 0.5 mM once daily for 14 days", "value": "healing of the wound site was promoted similarly to the normal control group"}, {"measurement": "re-epithelialization (H&E)", "setting": "[2]; diabetes-induced mouse, 14 days", "value": "fast re-epithelialization"}, {"measurement": "collagen synthesis (Van Gieson's stain, Picrosirius red)", "setting": "[2]; diabetes-induced mouse, vs normal and negative control group", "value": "increased collagen synthesis"}, {"measurement": "angiogenesis around the wound site", "setting": "[3]", "value": "increased angiogenesis"}, {"measurement": "healing of the wound site", "setting": "[3]; 0.8×0.8 cm^2 wound, 20 μL once daily for 14 days, VPA 500 mM", "value": "healing of the wound site was promoted similarly to the normal control group"}, {"measurement": "re-epithelialization (H&E)", "setting": "[3]; 14 days", "value": "re-epithelialization occurred quickly"}, {"measurement": "collagen synthesis (Van Gieson's stain, Masson's trichrome)", "setting": "[3]; vs normal, negative and positive control group (VPA)", "value": "increased collagen synthesis"}]}]}
